Read-outs that look alike come from different tables or passages of the source.
How the values were obtained:
[1] = Zeta-potential measurement; format: physicochemical
Method in brief: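 Peptides from a 10 mg/mL DMSO stock were brought to 1 mg/mL in PBS (pH 7.4) and aged 1 d at RT. Just before reading, they were diluted into 1 mM aqueous KCl, and zeta potential was calculated from electrophoretic mobility with the Smoluchowski formula.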

[2] = Turbidity, derived count rate of scattered light; format: physicochemical; conditions: for Count Rate: derived count rate of scattered light (turbidity); for Log10 Count Rate: turbidity, derived count rate of scattered light, data of Figure 2D
[3] = Turbidity, derived count rate of scattered light; format: physicochemical; conditions: for Count Rate / kcps: derived count rate of scattered light at 633 nm, 173°, from zeta-potential measurement, 0.1 mg/mL in 1 mM KCl after 1 d at 1 mg/mL in PBS, turbidity / microscopic aggregation, mean of triplicate
Method in brief: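 Samples: 1 mg/mL in PBS pH 7.4 (from DMSO), 1 d at RT, then diluted in 1 mM KCl immediately before measurement. Triplicates, two independent runs averaged.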

[4] = β-sheet content by ATR-FT-IR; format: physicochemical; conditions: Fig. S7 panel A; β-sheet content by ATR-FT-IR
Experimental: For ATR FT–IR spectroscopy measurements, 200 µL of the respective 1 mg/mL PNF solution was lyophilized and the resulting powder used for measurement. All spectra were recorded on a Bruker Tensor 27 spectrometer with a diamond crystal as ATR element (PIKE MiracleTM, spectral resolution 2 cm^-1). Every sample was measured with 64 scans. Data were analyzed with OriginLab software and calculation of β–sheet content was conducted according to a previous report. TEM. For TEM measurements 5 µL of PNF fibrils (1 mg/mL) were placed on copper grids coated with carbon and formvar layer (300 mesh, Plano GmbH). After 10 min incubation time, the grids were staining with 4% uranyl acetate solution for 2.5 min and washed with water. Measurements were performed on a Jeol 1400 electron microscope with 120 kV acceleration voltage. CR Assay. For the determination of the amount of peptide monomer converting into nanostructures the amine reactive dye fluorescamine was used analogous to a previous reported protocol. Briefly, 100 µL of the preformed PNF solution was centrifuged in a Vivaspin 500 tube (3 kDa MWCO) to separate fibers from free peptide monomer (16200 x g, 4 °C, 45 min). The filtrate and 100 μL of the non-filtered PNF sample were lyophilized and dissolved in 30 μL DMSO. 10 μL of the filtrate and non-filtered DMSO samples were submitted in a black UV Star® 384 microliter well–plates (Greiner bio–one) and 3 μL of the fluorescamine solution (10 mg/mL, DMSO) was added to measure the fluorescence enhancement. After 20 min of incubation at RT, fluorescence was recorded on an Infinite® M1000 PRO microplate reader (Tecan) at λem = 470 nm upon excitation at λex = 365 nm with 10 nm bandwidths and multiple reads per well (3×3). Measurements were repeated in triplicates and averaged with standard deviation. All values were calculated as n-fold fluorescence enhancement (DMSO only as a reference was set to 1). The conversion rate CR was defined according to the equation Eq. (3).3 CR=100−100×fluorescenceintensityfiltrate/fluorescenceintensityoriginal[%]

[5] = tested on: HIV-1 infection of TZM-bl cells; assay: HIV-1 infectivity enhancement assay, β-galactosidase luminescence; format: cell-based; conditions: for Rel-EFC / Log10 Infection Rel EFC: 1.3 µM peptide; for Rel-EFC: infection relative to EF-C (QCKIKQIINMWQ = 1); for Log10 Infection Rel EFC: log10 of infection relative to EF-C; for Log Infectivity: Log10 infection relative to EF-C, asymmetric std dev errors; for Log10 Infection Rel EF-C: HIV-1 infection of TZM-bl cells; for Log10 of Rel to EFC (Feb2021): Log10 of infection relative to EF-C, all peptides of FigS16
[6] = zeta potential of peptide assemblies
[7] = zeta-potential of peptide, source data of Figure 2C
[8] = zeta-potential of the peptide assemblies, mean, Figure 3A source data
[9] = Log10 of derived count rate of scattered light (turbidity)
[10] = log10 of derived count rate of scattered light (turbidity)
[11] = turbidity, Log10 of derived count rate of scattered light, Figure 3A source data
[12] = Fig. S7 panel A (plotted against β-sheet content), TZM-bl cells
[13] = Fig. S7 panel B (plotted against CR), rounded to two decimals, TZM-bl cells
[14] = Log10 of infection rate relative to EF-C, Figure 3A source data
[15] = infection rate relative to EF-C, log10, data of Figure 2D
[16] = infection rate relative to EF-C, log10, source data of Figure 2C
[17] = logarithm of count rate in kcps

Sequence | Zeta-Pot. [1, 6] | Zeta-Potential / mV [1, 7] | Zeta-Potential / mV [1, 8] | Count Rate [2] | Log10 Count Rate [2] | Log10 Count Rate [3, 9] | Count Rate / kcps [3] | Log10 Count Rate [3, 10] | Log10 Count Rate [3, 11] | b -sheet / % [4] | Rel-EFC [5] | Log10 Infection Rel EFC [5] | Log Infectivity [5, 12] | Log Infectivity [5, 13] | Log10 Infection Rel EF-C [5, 14] | Log10 Infection Rel EF-C [5, 15] | Log10 Infection Rel EF-C [5, 16] | Log10 of Rel to EFC (Feb2021) [5] | Log10 Count Rate [3, 17] | other results
RGDKIKIQINM | 16.43 | 16.22 mV | 16.43 mV | 57.2 | 1.7574 | 1.7574 | 57 kcps | 1.7574 | 1.7574 | 45.52% | 0,41 | -0,38 | -0.3838 | -0.38 | -0.38 | -0.3838 | -0.3838 | -0.38 | – | –
HHHHKIKIQINMYYYY | 7.807 | 7.147 mV | 7.81 mV | 5659 | 3.753 | 3.753 | 5659 kcps | 3.753 | 3.753 | 46.73% | 1,11 | 0,04 | 0.04454 | 0.04 | 0.04 | 0.04454 | 0.04454 | 0.04 | 3.753 | –
IKVAVKIKIQINM | – | 14.18 mV | 14.5 mV | 4848 | 3.686 | 3.686 | 4848 kcps | 3.686 | 3.686 | 58.1% | 0,5 | -0,3 | -0.3046 | – | -0.3 | -0.3046 | -0.3046 | -0.3 | – | Zeta-Pot. [1]: 14.5; Abs. Inf. ([5]; absolute HIV-1 infection signal, TZM-bl cells, β-galactosidase luminescence): 17920
CKIKQIINMWQ | 13.4 | 10.55 mV | 13.4 mV | 8317 | 3.92 | 3.92 | 8317 kcps | 3.92 | 3.92 | 51% | 1,24 | 0,09 | 0.09484 | 0.09 | 0.09 | 0.09484 | 0.09484 | 0.09 | 3.92 | –
KIEIQINM | -0.35 | -6.992 mV | -0.35 mV | 274.8 | 2.439 | 2.439 | 275 kcps | 2.439 | 2.439 | 42.99% | 0,03 | -1,46 | -1.458 | – | -1.46 | -1.458 | -1.458 | – | – | –

From paper PMC10447463, “Data-mining unveils structure–property–activity correlation of viral infectivity enhancing self-assembling peptides” (Nature Communications, 2023)
